# Where a name gives a salt, the structure may show the parent alone.
# How the values were obtained:
# Wistar rats [1] = assay: food-maintained responding; conditions: food-restricted rats, 1 h session
# rat mGluR3 = rat mGluR3 (Rattus norvegicus, UniProt P31422); assay: thallium flux assay, mGluR3 GIRK HEK-293 cells; assay type: cell-based; conditions: in presence of EC20 glutamate
# [2] = brain and plasma levels 1 h after administration; assay type: in vivo; conditions: rat, geometric mean (lower – upper limits)
# Wistar rats [3] = assay: cue-induced reinstatement of cocaine-seeking behavior
# Wistar rats [4] = assay: intravenous cocaine self-administration, short; conditions: for inactive lever presses: cocaine self-administration; for cocaine self-administration (infusions earned, % of baseline): 30 min pretreatment, vs vehicle
# [5] = plasma pharmacokinetics after i.p. administration; assay type: in vivo; conditions: rat, mean ± SD
# Wistar rats [6] = assay: intracranial self-stimulation; assay type: in vivo, rat
# Wistar rats [7] = assay: cue-induced reinstatement of food-seeking behavior; conditions: food-responding rats; 10, 20, 40 mg/kg i.p., between-subjects
# ShA rats = conditions: 3 mg/kg, ref Baptista et al 2004; cited from earlier work
# Chain of rat mGluR3 (P31422 23-879): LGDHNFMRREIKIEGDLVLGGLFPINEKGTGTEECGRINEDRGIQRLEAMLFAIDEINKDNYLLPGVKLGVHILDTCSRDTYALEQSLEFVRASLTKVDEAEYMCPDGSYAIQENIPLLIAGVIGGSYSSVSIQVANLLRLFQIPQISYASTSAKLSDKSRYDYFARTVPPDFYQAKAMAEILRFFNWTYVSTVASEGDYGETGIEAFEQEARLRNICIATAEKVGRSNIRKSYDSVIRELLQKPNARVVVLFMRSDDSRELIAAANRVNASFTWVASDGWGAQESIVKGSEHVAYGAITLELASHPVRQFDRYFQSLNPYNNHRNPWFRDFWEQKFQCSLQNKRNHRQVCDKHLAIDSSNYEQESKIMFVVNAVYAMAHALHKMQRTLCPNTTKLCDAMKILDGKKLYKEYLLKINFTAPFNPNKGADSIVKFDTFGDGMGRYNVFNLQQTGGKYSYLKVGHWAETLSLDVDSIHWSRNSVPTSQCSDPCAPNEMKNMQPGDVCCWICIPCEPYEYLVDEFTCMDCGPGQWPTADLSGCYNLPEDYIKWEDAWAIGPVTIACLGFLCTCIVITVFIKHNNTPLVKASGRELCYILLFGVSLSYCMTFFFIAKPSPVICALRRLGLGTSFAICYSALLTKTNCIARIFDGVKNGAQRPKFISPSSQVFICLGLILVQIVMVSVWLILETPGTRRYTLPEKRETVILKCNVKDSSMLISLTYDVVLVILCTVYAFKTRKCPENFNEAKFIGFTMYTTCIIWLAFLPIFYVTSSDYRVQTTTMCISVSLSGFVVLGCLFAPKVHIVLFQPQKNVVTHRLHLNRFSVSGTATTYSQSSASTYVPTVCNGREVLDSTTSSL
smiles,measurement,setting,value
"Cc1c(OCc2cccc(-c3ccc(C(=O)[O-])cc3)c2)cc2c(c1C)C(=O)C(C1CCCC1)C2.[K+] (centres unmarked) [BINA, potassium 3′-([2-cyclopentyl-6-7-dimethyl-1-oxo-2,3-dihydro-1H-inden-5yloxy]methyl)biphenyll-4-carboxylate]",food-maintained responding,"Wistar rats [1]; 10, 20, 40 mg/kg i.p.",no effect on food responding
same,potentiation of the glutamate EC20 response,rat mGluR3,inactive
same,Brain level (mean),[2]; 20 mg/kg,2.78 (0.65 – 6.39) μM
same,Plasma level (mean),[2]; 20 mg/kg,10.54 (0.79 – 25.48) μM
same,Brain level (mean),[2]; 40 mg/kg,2.30 (0.62 – 5.54) μM
same,Plasma level (mean),[2]; 40 mg/kg,7.79 (0.81 – 16.98) μM
same,active lever presses in reinstatement sessions,"Wistar rats [3]; non-reinstated sub-groups of ShA and LgA rats (median split), 10-40 mg/kg i.p.",no effect of BINA treatment
same,cue-induced reinstatement of cocaine-seeking behavior,Wistar rats [3]; three ShA rats reinstating by predefined criterion,tended to reduce cue-induced reinstatement
same,inactive lever presses,"Wistar rats [4]; 10, 20, 40 mg/kg i.p.",no effect on inactive lever presses
same,AUC,[5]; 20 mg/kg i.p.,31 ± 5.0 h μM/L
same,Cmax,[5]; 20 mg/kg i.p.,9.3 ± 2.7 µM
same,Vd,[5]; 20 mg/kg i.p.,5.9 ± 2.6 L/kg
same,AUC,[5]; 40 mg/kg i.p.,114 ± 42 h μM/L
same,Cmax,[5]; 40 mg/kg i.p.,31 ± 14 µM
same,Vd,[5]; 40 mg/kg i.p.,1.7 ± 0.68 L/kg
same,cocaine-induced decrease in ICSS response latencies,Wistar rats [6]; 20 mg/kg i.p. combined with cocaine 10 mg/kg i.p.,reversed the cocaine-induced decrease in response latencies
same,ICSS response latencies,Wistar rats [6]; 40 mg/kg i.p. vs vehicle,significantly increased
same,cocaine-induced ICSS threshold lowering,Wistar rats [6]; 20 and 40 mg/kg i.p. combined with cocaine 10 mg/kg i.p.,attenuated cocaine-induced threshold lowering
same,ICSS reward thresholds,"Wistar rats [6]; administered alone, 20 and 40 mg/kg i.p.",significantly elevated reward thresholds
same,cue-induced food seeking (active lever presses),Wistar rats [7],no effect on the number of active lever presses
"COC(=O)[C@H]1[C@@H](OC(=O)c2ccccc2)C[C@@H]2CC[C@H]1N2C [Cocaine, Cocaine hydrochloride, reference compound]",ICSS reward thresholds,"Wistar rats [6]; 10 mg/kg i.p., co-administered with vehicle or 10 mg/kg BINA",significantly lowered ICSS thresholds
"N[C@@]1(C(=O)O)CO[C@H]2[C@H](C(=O)O)[C@H]21 [LY379268, [−]-2-oxa-4-aminobicyclo[3.1.0]hexane-4,6-dicarboxylate]",food-maintained responding,Wistar rats [1]; 6 mg/kg,significantly decreased food responding
same,cocaine self-administration,ShA rats,decreased cocaine self-administration
same,"cocaine self-administration (infusions earned, % of baseline)","Wistar rats [4]; LgA rats, 6 h session and first hour, 6 mg/kg",significant decrease in cocaine intake
same,"cocaine self-administration (infusions earned, % of baseline)","Wistar rats [4]; ShA rats, 1 h session, 3 and 6 mg/kg",significant decrease in cocaine intake
same,inactive lever presses,"Wistar rats [4]; 0.3, 1, 3, 6 mg/kg",no effect on inactive lever presses

# — publication PMC2922422 (Neuropsychopharmacology : official publication of the …, 2010)
